Tested on: Plasmodium berghei
Experiment: Luciferase/luciferin-expressing antifolate-resistant parasites were used to infect a culture of HepG2 cells that were pre-incubated with compounds. Infected hepatocytes emit light due to the luciferase reaction. Assay results are presented as the percent inhibition of light emission compared to control. […]
Assay type: functional
Details: sporozoite; for IC90: read-out: LUCIFERASE INFECTION ASSAY - IC90

In the case of `Cn1c(N)c(C(=O)COC(=O)C2(c3ccc(Cl)cc3)CCCC2)c(=O)n(C)c1=O`, the IC50 (PBLUC_HILL_SLOPE 2.17, PBLUC_R_SQUARED 0.685, read-out: LUCIFERASE INFECTION ASSAY - IC50) is reported as 2.5 µM and the IC90 is reported as 6.91 µM.
`CC1CCN(S(=O)(=O)c2ccc(C(=O)Nc3ncccc3O)cc2)CC1` was tested, and the IC50 (PBLUC_HILL_SLOPE 2.15, PBLUC_R_SQUARED 0.503, read-out: LUCIFERASE INFECTION ASSAY - IC50) was 4.81 µM and the IC90 was > 10 µM.
For `Cc1ccc(S(=O)(=O)/N=C2\C=C(NS(=O)(=O)c3ccc(C)cc3)C(=O)c3ccccc32)cc1`, the IC50 (PBLUC_HILL_SLOPE 2.17, PBLUC_R_SQUARED 0.652, read-out: LUCIFERASE INFECTION ASSAY - IC50) was 5.51 µM and the IC90 was > 10 µM.
With `CCCCC1(Cc2ccccc2)C(=O)c2cccc3c4ccccc4n(c23)C1=O` (stereo not drawn) the IC50 (PBLUC_HILL_SLOPE 2.19, PBLUC_R_SQUARED 0.0283, read-out: LUCIFERASE INFECTION ASSAY - IC50) was 8.01 µM and the IC90 was > 8.65 µM.
With `N#C/C(=C\c1cccc([N+](=O)[O-])c1)c1nn(-c2ccccc2)c(-n2cccc2)c1C#N` the IC50 (PBLUC_HILL_SLOPE 2.16, PBLUC_R_SQUARED 0.645, read-out: LUCIFERASE INFECTION ASSAY - IC50) was 5.63 µM and the IC90 was > 8.12 µM.
For `CC(=O)Nc1cccc(-c2cn3c(-c4ccc5ncccc5c4)cnc3cn2)c1`, the IC50 (PBLUC_HILL_SLOPE 2.19, PBLUC_R_SQUARED 0.526, read-out: LUCIFERASE INFECTION ASSAY - IC50) was 5.14 µM and the IC90 was > 8.7 µM.
In the case of `COc1ccc(C)cc1NC(=O)C(OC(=O)c1cccn1C)c1ccccc1` (stereo not drawn), the IC50 (PBLUC_HILL_SLOPE 2.21, PBLUC_R_SQUARED 0.0841, read-out: LUCIFERASE INFECTION ASSAY - IC50) is reported as 8.87 µM and the IC90 is reported as > 10 µM.
For `COc1ccc(NC2=NC(=O)/C(=C/c3cc(C)n(-c4cccc(Cl)c4Cl)c3C)S2)cc1`, the IC50 (PBLUC_HILL_SLOPE 2.19, 1.56, PBLUC_R_SQUARED 0.711, 0.979, read-out: LUCIFERASE INFECTION ASSAY - IC50) was 0.238 µM and the IC90 was 0.771 µM.
For `CC(=O)Nc1ccc(OCC(=O)NC(c2ccc(C)cc2)c2cccs2)cc1` (stereo not drawn), the IC50 (PBLUC_HILL_SLOPE 2.22, PBLUC_R_SQUARED 0.0478, read-out: LUCIFERASE INFECTION ASSAY - IC50) was > 10 µM and the IC90 was > 10 µM.
`COc1ccc(/C=C2\c3ccccc3Cn3c2nc(=O)c2c4c(sc23)CCCC4)cc1` gave an IC50 (PBLUC_HILL_SLOPE 2.2, PBLUC_R_SQUARED 0.219, read-out: LUCIFERASE INFECTION ASSAY - IC50) of 3.06 µM and an IC90 of 8.28 µM.
In the case of `CCCc1oc2c(cc(NS(=O)(=O)c3ccc(Cl)cc3)c3ccccc32)c1C(=O)OCC`, the IC50 (PBLUC_HILL_SLOPE 2.19, PBLUC_R_SQUARED 0.549, read-out: LUCIFERASE INFECTION ASSAY - IC50) is reported as 5.77 µM and the IC90 is reported as > 10 µM.
Compound `Cc1ccc(C)c(S(=O)(=O)N2CCN(C(=O)c3[nH]nc4ccccc34)CC2)c1` has an IC50 (PBLUC_HILL_SLOPE 2.18, PBLUC_R_SQUARED 0.737, read-out: LUCIFERASE INFECTION ASSAY - IC50) of 0.627 µM and an IC90 of 1.72 µM.
`CCOC(=O)NC(=O)/C(C#N)=N/Nc1ccccc1` was tested, and the IC50 (PBLUC_HILL_SLOPE 2.22, PBLUC_R_SQUARED 0.599, read-out: LUCIFERASE INFECTION ASSAY - IC50) was 0.207 µM and the IC90 was 0.557 µM.
`c1ccc(NCc2ccc(-c3cn4c(-c5cccnc5)cnc4cn3)cc2)cc1` showed an IC50 (PBLUC_HILL_SLOPE 2.17, PBLUC_R_SQUARED 0.86, read-out: LUCIFERASE INFECTION ASSAY - IC50) of 2.66 µM and an IC90 of 7.31 µM.
With `COCCNc1nc2cnc(-c3cccc(Oc4ccccc4)c3)cc2n1C` the IC50 (PBLUC_HILL_SLOPE 2.22, PBLUC_R_SQUARED 0.147, read-out: LUCIFERASE INFECTION ASSAY - IC50) was 6.81 µM and the IC90 was > 10 µM.
With `O=C(Nc1cccc2c[nH]nc12)c1cnc(OCC(F)(F)F)c(Cl)c1` the IC50 (PBLUC_HILL_SLOPE 2.15, PBLUC_R_SQUARED 0.641, read-out: LUCIFERASE INFECTION ASSAY - IC50) was 1.99 µM and the IC90 was 5.53 µM.
`Cc1cc(NC(=O)C(C)Sc2ncnc3c2oc2ccccc23)no1` (stereo not drawn) was tested, and the IC50 (PBLUC_HILL_SLOPE 2.18, PBLUC_R_SQUARED 0.0347, read-out: LUCIFERASE INFECTION ASSAY - IC50) was > 10 µM and the IC90 was > 10 µM.
For `O=C(COc1ccc(C23CC4CC(CC(C4)C2)C3)cc1)N1CCCC1`, the IC50 (PBLUC_HILL_SLOPE 2.17, PBLUC_R_SQUARED 0.715, read-out: LUCIFERASE INFECTION ASSAY - IC50) was 1 µM and the IC90 was 2.75 µM.
`Cc1cc([N+](=O)[O-])cc(S(=O)(=O)N(Cc2ccc(C(=O)NC3CC3)cc2)C2CC2)c1C` showed an IC50 (PBLUC_HILL_SLOPE 2.2, PBLUC_R_SQUARED 0.808, read-out: LUCIFERASE INFECTION ASSAY - IC50) of 0.801 µM and an IC90 of 2.18 µM.
In the case of `COc1ccc(CCNC(=O)c2ccccc2NC(=O)c2cc(OC)c(OC)c(OC)c2)cc1OC`, the IC50 (PBLUC_HILL_SLOPE 2.16, PBLUC_R_SQUARED 0.652, read-out: LUCIFERASE INFECTION ASSAY - IC50) is reported as 3.54 µM and the IC90 is reported as > 6.67 µM.
For `CC(C)c1cc(NCCCN2CCOCC2)n2ncc(-c3ccccc3)c2n1`, the IC50 (PBLUC_HILL_SLOPE 2.21, PBLUC_R_SQUARED 0.515, read-out: LUCIFERASE INFECTION ASSAY - IC50) was 4.34 µM and the IC90 was > 8.7 µM.
With `COc1ccc(C2CCCN2Cc2cc(=O)oc3cc(C)c(Cl)cc23)c(OC)c1` (stereo not drawn) the IC50 (PBLUC_HILL_SLOPE 2.17, PBLUC_R_SQUARED 0.455, read-out: LUCIFERASE INFECTION ASSAY - IC50) was 6.43 µM and the IC90 was > 10 µM.
In the case of `CC(C)c1ccc(NC(=O)[C@@H]2Cc3ccccc3CN2C(=O)OC(C)(C)C)cc1`, the IC50 (PBLUC_HILL_SLOPE 2.17, PBLUC_R_SQUARED 0.544, read-out: LUCIFERASE INFECTION ASSAY - IC50) is reported as 3.19 µM and the IC90 is reported as > 8.36 µM.
For `Nc1nc(Nc2cc(Cl)cc(Cl)c2)c2[nH]cnc2n1`, the IC50 (PBLUC_HILL_SLOPE 2.21, PBLUC_R_SQUARED 0.753, read-out: LUCIFERASE INFECTION ASSAY - IC50) was 3.18 µM and the IC90 was 8.62 µM.
With `O=C(c1ccccc1)N1[C@@H]2CC[C@@H](C2)[C@H]1c1nc2cccc(OCc3ccccc3)c2[nH]1` the IC50 (PBLUC_HILL_SLOPE 2.24, PBLUC_R_SQUARED 0.373, read-out: LUCIFERASE INFECTION ASSAY - IC50) was > 10 µM and the IC90 was > 10 µM.
With `CN1CCN(c2ccc(-c3cn4c(-c5ccc(CO)cc5)cnc4cn3)cc2)CC1` the IC50 (PBLUC_HILL_SLOPE 2.22, PBLUC_R_SQUARED 0.0391, read-out: LUCIFERASE INFECTION ASSAY - IC50) was > 8.26 µM and the IC90 was > 8.26 µM.
`CN1CCN(c2ccc(-c3cn4c(-c5ccc6c(c5)OCO6)cnc4cn3)cn2)CC1` was tested, and the IC50 (PBLUC_HILL_SLOPE 2.2, PBLUC_R_SQUARED 0.54, read-out: LUCIFERASE INFECTION ASSAY - IC50) was 6.26 µM and the IC90 was > 7.96 µM.
With `CC(C)CN1C(=O)N(CCCc2cccnc2)C(=O)C12CCN(C(C)CCc1ccccc1)CC2` (stereo not drawn) the IC50 (PBLUC_HILL_SLOPE 2.19, PBLUC_R_SQUARED 0.623, read-out: LUCIFERASE INFECTION ASSAY - IC50) was 3.61 µM and the IC90 was > 6.92 µM.
For `CCCn1c(N)c(C(=O)CN(Cc2ccco2)Cc2cccs2)c(=O)[nH]c1=O`, the IC50 (PBLUC_HILL_SLOPE 2.23, PBLUC_R_SQUARED 0.528, read-out: LUCIFERASE INFECTION ASSAY - IC50) was 5.46 µM and the IC90 was > 10 µM.
In the case of `CNC(=O)c1ccc(CN(C2CC2)S(=O)(=O)c2ccc(C)cc2C)cc1`, the IC50 (PBLUC_HILL_SLOPE 2.19, PBLUC_R_SQUARED 0.255, read-out: LUCIFERASE INFECTION ASSAY - IC50) is reported as 2.97 µM and the IC90 is reported as 8.11 µM.
In the case of `CC(CN1CCC2(CC1)C(=O)N(Cc1ccccn1)C(=O)N2Cc1ccccc1)c1ccccc1` (stereo not drawn), the IC50 (PBLUC_HILL_SLOPE 2.23, PBLUC_R_SQUARED 0.302, read-out: LUCIFERASE INFECTION ASSAY - IC50) is reported as > 7.04 µM and the IC90 is reported as > 7.04 µM.
Compound `O=C(/C=C/c1cn(Cc2ccccc2)nc1-c1ccccc1)N1CCN(c2ccncc2)CC1` has an IC50 (PBLUC_HILL_SLOPE 2.17, PBLUC_R_SQUARED 0.608, read-out: LUCIFERASE INFECTION ASSAY - IC50) of 2.22 µM and an IC90 of 6.13 µM.
For `O=C(COc1ccccc1)Nc1nc2ccccn2c1C(=O)NC1CCCC1`, the IC50 (PBLUC_HILL_SLOPE 2.22, PBLUC_R_SQUARED 0.0336, read-out: LUCIFERASE INFECTION ASSAY - IC50) was 7.18 µM and the IC90 was > 8.72 µM.
`CCCCNC1=C(NS(=O)(=O)c2ccc(NC(C)=O)cc2)C(=O)c2ccccc2C1=O` was tested, and the IC50 (PBLUC_HILL_SLOPE 2.17, PBLUC_R_SQUARED 0.634, read-out: LUCIFERASE INFECTION ASSAY - IC50) was 3.66 µM and the IC90 was > 10 µM.
For `C=CCNC(=O)NC(=O)COC(=O)c1c2c(nc3ccccc13)/C(=C/c1cccs1)CCC2`, the IC50 (PBLUC_HILL_SLOPE 2.17, PBLUC_R_SQUARED 0.466, read-out: LUCIFERASE INFECTION ASSAY - IC50) was 7.2 µM and the IC90 was > 10 µM.
In the case of `COc1ccc2c(-c3ccccc3)cc(SCc3nnc(C)o3)nc2c1`, the IC50 (PBLUC_HILL_SLOPE 2.18, PBLUC_R_SQUARED 0.122, read-out: LUCIFERASE INFECTION ASSAY - IC50) is reported as 6.06 µM and the IC90 is reported as > 10 µM.
For `c1ccc(Oc2cccc(-c3ccc4nnc(-c5ccc6nccnc6c5)n4c3)c2)cc1`, the IC50 (PBLUC_HILL_SLOPE 2.21, PBLUC_R_SQUARED 0.734, read-out: LUCIFERASE INFECTION ASSAY - IC50) was 4.56 µM and the IC90 was > 10 µM.
With `Cc1cc(C(=O)CN2CCN(C)CC2)c(C)n1C(c1ccccc1)c1ccccc1` the IC50 (PBLUC_HILL_SLOPE 2.18, PBLUC_R_SQUARED 0.339, read-out: LUCIFERASE INFECTION ASSAY - IC50) was 6.77 µM and the IC90 was > 10 µM.
With `C=CCn1c[n+](C2=C(NS(=O)(=O)c3ccc(C)cc3)C(=O)c3ccccc3C2=O)c2ccccc21` the IC50 (PBLUC_HILL_SLOPE 2.18, PBLUC_R_SQUARED 0.79, read-out: LUCIFERASE INFECTION ASSAY - IC50) was 0.462 µM and the IC90 was 1.26 µM.
